Targets include 5HT1E (Homo sapiens, UniProt P28566); D5 (Homo sapiens, UniProt P21918); 5HT5A (Homo sapiens, UniProt P47898); NOP (Homo sapiens, UniProt P41146); H1 (Homo sapiens, UniProt P35367); 5HT7A (Homo sapiens, UniProt P34969); 5HT6 (Homo sapiens, UniProt P50406); D3 (Homo sapiens, UniProt P35462); SERT (Homo sapiens, UniProt P31645); 5HT2B (Homo sapiens, UniProt P41595); D1 (Homo sapiens, UniProt P21728); H4 (Homo sapiens, UniProt Q9H3N8); DAT (Homo sapiens, UniProt Q01959); D2 (Homo sapiens, UniProt P14416); MOR (Homo sapiens, UniProt P35372); 5HT2A (Homo sapiens, UniProt P28223); 5HT1D (Homo sapiens, UniProt P28221); DOR (Homo sapiens, UniProt P41143).

Common to all, as to experiment: biochemical
The target in the next assay is T1, D4 (Homo sapiens, UniProt P21917).
T1 sequence (P21917 1-419): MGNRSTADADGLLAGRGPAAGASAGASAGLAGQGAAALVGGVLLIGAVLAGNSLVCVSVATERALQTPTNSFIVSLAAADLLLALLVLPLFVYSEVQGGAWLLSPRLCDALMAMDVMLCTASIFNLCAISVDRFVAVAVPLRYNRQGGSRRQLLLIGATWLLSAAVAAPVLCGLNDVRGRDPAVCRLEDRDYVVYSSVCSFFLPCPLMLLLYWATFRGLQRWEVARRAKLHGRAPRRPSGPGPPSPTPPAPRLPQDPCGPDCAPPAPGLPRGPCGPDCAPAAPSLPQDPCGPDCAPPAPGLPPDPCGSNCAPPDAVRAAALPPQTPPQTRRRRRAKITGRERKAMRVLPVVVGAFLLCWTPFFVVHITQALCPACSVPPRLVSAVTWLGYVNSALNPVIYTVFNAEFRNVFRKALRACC

Another assay deals with T2, 5HT3 (Homo sapiens, UniProt P46098).
T2 sequence (P46098 1-478): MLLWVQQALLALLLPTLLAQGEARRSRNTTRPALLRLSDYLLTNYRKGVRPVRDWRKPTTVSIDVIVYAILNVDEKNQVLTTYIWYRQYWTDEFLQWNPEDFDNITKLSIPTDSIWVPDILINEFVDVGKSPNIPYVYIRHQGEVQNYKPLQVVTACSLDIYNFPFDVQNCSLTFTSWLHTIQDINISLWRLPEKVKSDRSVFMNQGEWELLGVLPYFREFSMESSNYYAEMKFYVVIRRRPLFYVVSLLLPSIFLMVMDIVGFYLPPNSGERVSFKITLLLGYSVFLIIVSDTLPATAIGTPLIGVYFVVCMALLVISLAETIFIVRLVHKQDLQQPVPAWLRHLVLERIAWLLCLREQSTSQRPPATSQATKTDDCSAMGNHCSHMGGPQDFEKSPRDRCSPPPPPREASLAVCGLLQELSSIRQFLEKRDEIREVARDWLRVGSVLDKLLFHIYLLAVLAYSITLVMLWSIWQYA

The target of a further assay is T3, 5HT2C (Homo sapiens, UniProt P28335).
T3 sequence (P28335 1-458): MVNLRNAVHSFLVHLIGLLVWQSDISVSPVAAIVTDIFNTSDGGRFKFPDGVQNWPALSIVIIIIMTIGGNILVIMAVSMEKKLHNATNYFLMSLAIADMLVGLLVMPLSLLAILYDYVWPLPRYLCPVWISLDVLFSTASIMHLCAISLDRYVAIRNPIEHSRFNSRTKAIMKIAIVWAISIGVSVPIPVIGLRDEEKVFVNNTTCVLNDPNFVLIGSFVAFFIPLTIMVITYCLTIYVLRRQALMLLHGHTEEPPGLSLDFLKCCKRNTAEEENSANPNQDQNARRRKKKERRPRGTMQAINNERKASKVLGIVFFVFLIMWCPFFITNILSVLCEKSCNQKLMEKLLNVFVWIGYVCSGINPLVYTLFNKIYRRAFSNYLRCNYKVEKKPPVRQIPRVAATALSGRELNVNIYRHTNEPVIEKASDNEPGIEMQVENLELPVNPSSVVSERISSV

In a further assay the target is T4, 5HT1A (Homo sapiens, UniProt P08908).
T4 sequence (P08908 1-422): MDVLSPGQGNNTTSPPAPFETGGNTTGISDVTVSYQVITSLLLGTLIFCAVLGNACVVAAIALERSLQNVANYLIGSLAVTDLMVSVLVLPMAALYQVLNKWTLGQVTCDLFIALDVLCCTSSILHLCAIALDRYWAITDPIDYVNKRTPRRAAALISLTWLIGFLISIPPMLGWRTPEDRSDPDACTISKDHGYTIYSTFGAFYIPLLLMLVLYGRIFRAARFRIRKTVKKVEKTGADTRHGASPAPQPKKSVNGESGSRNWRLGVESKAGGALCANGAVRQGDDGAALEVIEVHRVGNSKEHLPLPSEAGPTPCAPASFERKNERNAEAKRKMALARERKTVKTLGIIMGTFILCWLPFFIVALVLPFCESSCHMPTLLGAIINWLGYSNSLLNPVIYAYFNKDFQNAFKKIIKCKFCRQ

The structures appear in SMILES notation.

Sequence of 5HT7A (P34969 whole entry): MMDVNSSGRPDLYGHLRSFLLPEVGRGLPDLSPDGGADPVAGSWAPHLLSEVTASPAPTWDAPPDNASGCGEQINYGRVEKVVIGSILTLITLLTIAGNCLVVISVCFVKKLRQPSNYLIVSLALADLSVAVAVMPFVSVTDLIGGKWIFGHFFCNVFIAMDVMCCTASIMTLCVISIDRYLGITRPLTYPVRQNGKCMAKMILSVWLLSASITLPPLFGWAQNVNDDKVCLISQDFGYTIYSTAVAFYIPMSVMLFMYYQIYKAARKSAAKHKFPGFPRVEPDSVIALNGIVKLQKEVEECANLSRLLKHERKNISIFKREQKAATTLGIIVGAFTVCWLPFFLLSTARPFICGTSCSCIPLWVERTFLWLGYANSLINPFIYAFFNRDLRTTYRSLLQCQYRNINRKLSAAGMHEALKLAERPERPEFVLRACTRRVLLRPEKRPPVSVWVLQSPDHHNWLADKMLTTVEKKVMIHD
Sequence of 5HT2A (P28223 whole entry): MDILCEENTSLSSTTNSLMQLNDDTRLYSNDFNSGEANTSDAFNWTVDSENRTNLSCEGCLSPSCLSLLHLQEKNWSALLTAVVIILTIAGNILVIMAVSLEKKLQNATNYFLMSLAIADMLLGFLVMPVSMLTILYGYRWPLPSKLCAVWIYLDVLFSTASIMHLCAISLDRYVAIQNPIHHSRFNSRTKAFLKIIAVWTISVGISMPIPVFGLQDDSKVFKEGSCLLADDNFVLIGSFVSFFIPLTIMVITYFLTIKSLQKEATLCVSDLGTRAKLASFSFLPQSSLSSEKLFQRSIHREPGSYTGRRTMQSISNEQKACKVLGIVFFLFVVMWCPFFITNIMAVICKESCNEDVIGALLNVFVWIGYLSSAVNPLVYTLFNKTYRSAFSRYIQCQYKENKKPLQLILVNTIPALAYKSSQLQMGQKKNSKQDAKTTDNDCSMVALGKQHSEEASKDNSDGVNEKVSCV
Sequence of D2 (P14416 whole entry): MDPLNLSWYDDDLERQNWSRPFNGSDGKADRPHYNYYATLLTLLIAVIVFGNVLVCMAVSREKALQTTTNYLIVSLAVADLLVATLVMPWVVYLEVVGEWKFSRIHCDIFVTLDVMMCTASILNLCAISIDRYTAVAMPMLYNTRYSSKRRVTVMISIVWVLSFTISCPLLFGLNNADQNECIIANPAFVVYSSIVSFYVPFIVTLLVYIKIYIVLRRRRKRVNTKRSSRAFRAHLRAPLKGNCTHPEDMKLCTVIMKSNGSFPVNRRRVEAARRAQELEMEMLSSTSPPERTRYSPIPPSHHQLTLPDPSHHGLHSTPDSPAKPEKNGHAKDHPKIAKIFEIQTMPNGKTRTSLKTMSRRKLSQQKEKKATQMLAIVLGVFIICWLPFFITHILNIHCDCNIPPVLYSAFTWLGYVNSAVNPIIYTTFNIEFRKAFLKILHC
Sequence of SERT (P31645 whole entry): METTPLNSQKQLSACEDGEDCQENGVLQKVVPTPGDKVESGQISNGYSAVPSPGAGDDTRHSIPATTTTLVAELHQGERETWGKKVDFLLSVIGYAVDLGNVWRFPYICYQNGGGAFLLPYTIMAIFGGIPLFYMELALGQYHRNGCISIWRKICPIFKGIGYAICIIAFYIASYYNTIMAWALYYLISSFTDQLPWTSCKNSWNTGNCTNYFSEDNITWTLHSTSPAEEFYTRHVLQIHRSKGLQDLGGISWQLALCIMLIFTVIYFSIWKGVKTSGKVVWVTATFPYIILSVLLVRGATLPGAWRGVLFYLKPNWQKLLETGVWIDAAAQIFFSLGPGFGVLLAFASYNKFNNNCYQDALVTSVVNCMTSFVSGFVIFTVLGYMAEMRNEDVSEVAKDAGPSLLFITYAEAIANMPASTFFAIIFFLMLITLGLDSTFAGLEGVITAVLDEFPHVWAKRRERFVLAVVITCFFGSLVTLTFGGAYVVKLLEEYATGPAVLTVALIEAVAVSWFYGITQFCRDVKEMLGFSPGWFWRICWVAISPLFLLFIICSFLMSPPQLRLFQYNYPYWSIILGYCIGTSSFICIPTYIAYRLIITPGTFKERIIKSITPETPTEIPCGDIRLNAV
Sequence of H4 (Q9H3N8 whole entry): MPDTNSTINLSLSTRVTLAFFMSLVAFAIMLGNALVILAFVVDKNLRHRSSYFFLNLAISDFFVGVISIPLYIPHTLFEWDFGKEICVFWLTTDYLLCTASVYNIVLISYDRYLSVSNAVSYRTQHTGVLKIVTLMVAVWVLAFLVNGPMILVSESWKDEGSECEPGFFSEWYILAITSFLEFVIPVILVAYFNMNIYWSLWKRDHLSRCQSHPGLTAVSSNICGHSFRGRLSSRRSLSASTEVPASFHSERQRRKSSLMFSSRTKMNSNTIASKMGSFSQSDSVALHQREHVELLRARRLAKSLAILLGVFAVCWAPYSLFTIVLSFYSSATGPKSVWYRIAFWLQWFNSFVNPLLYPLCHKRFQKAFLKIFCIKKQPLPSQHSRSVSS
Sequence of NOP (P41146 whole entry): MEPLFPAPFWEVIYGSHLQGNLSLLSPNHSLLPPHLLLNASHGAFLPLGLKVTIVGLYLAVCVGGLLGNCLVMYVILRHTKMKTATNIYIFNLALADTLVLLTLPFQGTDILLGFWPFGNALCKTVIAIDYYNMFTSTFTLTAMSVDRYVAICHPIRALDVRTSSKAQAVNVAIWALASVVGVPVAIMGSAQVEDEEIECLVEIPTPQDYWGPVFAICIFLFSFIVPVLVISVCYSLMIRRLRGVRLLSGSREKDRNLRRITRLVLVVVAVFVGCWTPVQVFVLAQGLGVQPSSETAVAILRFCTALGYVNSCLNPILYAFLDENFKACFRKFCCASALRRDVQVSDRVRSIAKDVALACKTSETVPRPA
Sequence of D1 (P21728 whole entry): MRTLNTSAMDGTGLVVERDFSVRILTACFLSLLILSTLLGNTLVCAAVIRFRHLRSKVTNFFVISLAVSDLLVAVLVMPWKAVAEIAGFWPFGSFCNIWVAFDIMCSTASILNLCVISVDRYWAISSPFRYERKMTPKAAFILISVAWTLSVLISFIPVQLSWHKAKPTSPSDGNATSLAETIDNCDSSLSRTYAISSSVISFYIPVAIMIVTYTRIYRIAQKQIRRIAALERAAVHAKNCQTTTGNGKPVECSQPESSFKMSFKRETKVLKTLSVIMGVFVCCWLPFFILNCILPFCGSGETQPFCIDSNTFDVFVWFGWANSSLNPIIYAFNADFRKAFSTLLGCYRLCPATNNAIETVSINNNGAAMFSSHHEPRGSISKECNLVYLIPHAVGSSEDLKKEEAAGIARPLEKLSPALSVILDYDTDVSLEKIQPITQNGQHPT
Sequence of 5HT1E (P28566 whole entry): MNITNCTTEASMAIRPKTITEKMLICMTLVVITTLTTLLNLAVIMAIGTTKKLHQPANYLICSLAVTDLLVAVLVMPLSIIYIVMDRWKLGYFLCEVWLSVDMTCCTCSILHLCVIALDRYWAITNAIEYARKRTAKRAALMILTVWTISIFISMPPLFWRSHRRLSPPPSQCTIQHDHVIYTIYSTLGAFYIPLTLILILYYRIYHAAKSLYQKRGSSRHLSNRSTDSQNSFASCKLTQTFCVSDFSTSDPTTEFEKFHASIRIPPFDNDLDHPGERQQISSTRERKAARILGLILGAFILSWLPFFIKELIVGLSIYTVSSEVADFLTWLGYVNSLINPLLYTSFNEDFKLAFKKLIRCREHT
Sequence of DAT (Q01959 whole entry): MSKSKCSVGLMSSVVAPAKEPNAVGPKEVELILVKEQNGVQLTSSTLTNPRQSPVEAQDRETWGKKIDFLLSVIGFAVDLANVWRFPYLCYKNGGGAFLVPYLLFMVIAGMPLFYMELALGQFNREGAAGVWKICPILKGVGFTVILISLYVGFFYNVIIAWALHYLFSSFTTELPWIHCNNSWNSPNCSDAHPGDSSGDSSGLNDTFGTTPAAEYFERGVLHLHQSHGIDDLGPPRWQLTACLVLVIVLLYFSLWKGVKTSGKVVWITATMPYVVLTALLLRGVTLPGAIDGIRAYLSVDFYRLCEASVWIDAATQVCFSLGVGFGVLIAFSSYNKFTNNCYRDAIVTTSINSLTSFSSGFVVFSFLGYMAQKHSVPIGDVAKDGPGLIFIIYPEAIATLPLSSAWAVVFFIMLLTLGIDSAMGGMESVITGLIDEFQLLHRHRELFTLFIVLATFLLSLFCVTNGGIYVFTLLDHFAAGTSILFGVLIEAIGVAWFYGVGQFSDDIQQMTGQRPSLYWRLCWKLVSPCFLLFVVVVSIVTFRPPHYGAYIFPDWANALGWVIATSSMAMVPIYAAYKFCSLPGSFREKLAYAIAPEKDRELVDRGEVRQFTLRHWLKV
Sequence of D3 (P35462 whole entry): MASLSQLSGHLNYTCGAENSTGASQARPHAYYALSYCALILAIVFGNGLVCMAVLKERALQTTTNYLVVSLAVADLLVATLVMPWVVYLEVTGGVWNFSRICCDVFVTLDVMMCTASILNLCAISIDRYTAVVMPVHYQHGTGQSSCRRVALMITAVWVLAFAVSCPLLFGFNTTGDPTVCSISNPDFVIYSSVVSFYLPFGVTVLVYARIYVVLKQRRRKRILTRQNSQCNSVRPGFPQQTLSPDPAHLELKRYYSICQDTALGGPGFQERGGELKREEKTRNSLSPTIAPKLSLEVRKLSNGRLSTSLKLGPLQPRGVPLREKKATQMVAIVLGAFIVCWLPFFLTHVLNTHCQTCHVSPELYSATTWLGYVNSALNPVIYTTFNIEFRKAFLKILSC
Sequence of 5HT5A (P47898 whole entry): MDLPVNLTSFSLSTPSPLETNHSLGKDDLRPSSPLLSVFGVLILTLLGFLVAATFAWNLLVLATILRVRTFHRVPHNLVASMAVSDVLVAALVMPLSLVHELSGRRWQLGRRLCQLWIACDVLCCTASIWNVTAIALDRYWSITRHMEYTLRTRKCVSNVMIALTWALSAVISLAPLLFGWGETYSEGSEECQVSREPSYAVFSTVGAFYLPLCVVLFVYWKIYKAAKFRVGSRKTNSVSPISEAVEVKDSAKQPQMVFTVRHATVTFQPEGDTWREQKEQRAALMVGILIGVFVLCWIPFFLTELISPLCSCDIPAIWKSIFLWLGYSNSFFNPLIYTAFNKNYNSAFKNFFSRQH

`Cc1cc(C(N)=O)cc(-c2cc(F)c(CNC3Cc4ccccc4C3)c(F)c2)c1` [1A]: the Ki on 5HT1E is over 10000 nM; at D4, 594 nM; on D5, over 10000 nM; at 5HT5A, over 10000 nM; at NOP, over 10000 nM; on H1 it was over 10000 nM. Also, the inhibitory constant (Ki) was over 10000 nM at 5HT7A; over 10000 nM on 5HT6; 466 nM at D3; over 10000 nM on 5HT3; over 10000 nM on 5HT2C; 523 nM on SERT. For the same compound, the Ki is over 10000 nM on 5HT2B; 998 nM on D1; over 10000 nM on H4; over 10000 nM on 5HT1A; 533 nM on DAT; 6530 nM at D2. In addition, the Ki at MOR is 8.3 nM; at 5HT2A it was over 10000 nM.
With `Cc1cc(C(N)=O)cc(-c2ccc(CNC3Cc4ccccc4C3)c(F)c2)c1` [2A], the Ki was over 10000 nM at 5HT1E; 748 nM on D4; over 10000 nM on D5; over 10000 nM on 5HT5A; over 10000 nM at NOP; over 10000 nM at H1. The inhibition constant (Ki) on 5HT7A was 891 nM; at 5HT6, over 10000 nM; at D3, 748 nM; on 5HT3, over 10000 nM; on 5HT2C, over 10000 nM; on 5HT1D it was 1660 nM. Besides, the Ki at SERT is 174 nM; at 5HT2B, over 10000 nM; on D1, 1270 nM; on DOR, 350 nM; at H4, over 10000 nM; at 5HT1A, over 10000 nM. Besides, the Ki at D2 was over 10000 nM; at MOR it was 9.2 nM; on 5HT2A, over 10000 nM.
As to `Cc1cc(C(N)=O)cc(-c2ccc(CNC3Cc4ccccc4C3)cc2)c1` [3A], the Ki is 27.2 nM at D4; over 10000 nM at D5; over 10000 nM at 5HT5A; over 10000 nM at NOP; over 10000 nM on H1; 977 nM at 5HT7A. The Ki was over 10000 nM at 5HT6; over 10000 nM at D3; over 10000 nM on 5HT3; 2270 nM at 5HT2C; over 10000 nM at 5HT1D; 310 nM on SERT. The Ki at 5HT2B was over 10000 nM; at D1, 1320 nM; on H4, over 10000 nM; on 5HT1A it was over 10000 nM; at DAT it was 850 nM; at D2, over 10000 nM. The Ki on MOR was 7.8 nM; at 5HT2A, over 10000 nM.
Turning to `Cc1cc(-c2cc(F)c(CNC3Cc4ccccc4C3)c(F)c2)cc(-c2ncn[nH]2)c1` [4A], the Ki at D4 was 1770 nM; on D5, over 10000 nM; at 5HT5A it was over 10000 nM; at NOP, over 10000 nM; on H1, over 10000 nM; at 5HT7A it was over 10000 nM. Besides, the Ki on 5HT6 was over 10000 nM; on D3 it was over 10000 nM; at 5HT3, over 10000 nM; on 5HT2C, over 10000 nM; on SERT it was 334 nM; at 5HT2B, 484 nM. For the same compound, the Ki at D1 was 1870 nM; at H4, over 10000 nM; at 5HT1A it was over 10000 nM; on DAT, 497 nM; on D2, over 10000 nM; at 5HT2A, over 10000 nM.
Regarding `Cc1cc(-c2ccc(CNC3Cc4ccccc4C3)cc2)cc(-c2nc[nH]n2)c1` [6A], the Ki on 5HT1E was over 10000 nM; at D4, 1770 nM; on D5, over 10000 nM; at 5HT5A it was 3940 nM; at NOP, 167 nM; at H1 it was 1450 nM. Besides, the Ki was 747 nM at 5HT7A; over 10000 nM on 5HT6; over 10000 nM at D3; over 10000 nM on 5HT3; 470 nM on 5HT2C; 1320 nM on 5HT1D. The Ki is 130 nM at SERT; 826 nM on 5HT2B; 716 nM on D1; 98 nM on DOR; over 10000 nM on H4; over 10000 nM on 5HT1A. Besides, the Ki was 287 nM on DAT, over 10000 nM at D2, 4.2 nM at MOR and 1000 nM at 5HT2A.

Source of the values: publication doi:10.1101/2024.10.12.618019v1 (biorxiv, 2024).
